{
  "source": "paper PMC3409241",
  "about": "“Probing Cocaine-Antibody Interactions in Buffer and Human Serum” (PLoS ONE, 2012)",
  "key": {"mAb08 [1]": {"target": "mAb08", "assay": "ITC titration of drug into mAb08", "type": "binding, mouse", "details": "25°C", "procedure": "(§1) ITC experiments were performed using an ITC-200 micro calorimeter from MicroCal (Northampton, MA, USA). Samples were dialyzed against PBS buffer and degassed prior to loading into the ITC cell. The drug samples were prepared in the same buffer to avoid buffer mismatch. Titrations were performed at 25°C by injecting consecutive aliquots (2 µl) of 45 µM drug into the ITC cell (volume of 200 µl) containing 3 µM antibody at 500 rpm stirring rate. Intervals between injections were set to be 150 sec in order to allow the heat from each injection to return to the baseline. Heats of dilution control experiments were performed by titrating ligand into buffer. The heats associated with the control titration were subtraced from the raw binding data prior to fitting. The data were fitted assuming that the antibody binding sites are identical using a single set binding model included in the Origin 7.0 software provided by the manufacturer. ITC directly measures the change in heat associated with two components going from the free to the bound state. Thus the observed molar change in enthalpy (ΔHobs) can be determined.\nThe binding isotherms, which is the incremental heat release as a function of complex formation is shown in the lower panel of Fig. 3. The solid line corresponds to the fit to a binding model to yield the equilibrium binding constant, K D, and the binding parameters, n and ΔH obs. The results of data analysis are shown in Table 1 along with the derived parameters, ΔGcal and ΔScal.\n(§2) The thermodynamic parameters associated with the binding of cocaine to human serum and human serum albumin were investigated using ITC. We titrated 45 µM of cocaine to 20% of control human serum (no anti-cocaine antibodies) dialyzed against PBS (Figure 4A)."}, "f-mAb08": {"target": "f-mAb08", "assay": "MST of fluorescently labeled f-mAb08 binding to drugs", "design": "species or system mouse", "details": "25°C", "procedure": "The fluorescent labeling was performed with a reactive RED dye (NT-647) following the manufacturer’s protocol (Nanotemper, Germany). […] Free dye was removed by purification on a Sephadex G-25 column provided with the kit. MST assays were carried out as described in Jerabek-Willesmsen et al.. Serial dilutions of unlabeled drug or antibody samples were mixed with 20 nM of NT-647-labeled proteins in PBS buffer (25 mM phosphate pH 7.4, 150 mM NaCl, 0.05% Tween-20) and incubated for 20 minutes. About 10 µl of sample was loaded into standard monolith NT capillaries provided by the manufacturer and assays were performed in a Nanotemper Monolith NT.015T. The Red fluorescence was exited using a light-emitting diode, and its emission was recorded at a focused location of capillary. Using another infrared laser diode a microscopic temperature gradient was created at the same location and the fluorescence depletion was measured. By plotting the concentrations of unlabeled binding partner with the changes in fluorescent thermophoresis signal, K D values were determined using the Nanotemper analysis software. The overlay diagram was made by normalizing the data to fraction bound."}, "mAb08 [2]": {"target": "mAb08", "assay": "SPR competitive inhibition of mAb08 binding to immobilized BSA-SNC", "design": "species or system mouse", "details": "50 nM mAb08 mixed with increasing drug concentrations"}, "[3]": {"tested_on": "RR6 enriched polyclonal antibodies", "assay": "SPR competitive inhibition of RR6 enriched polyclonal antibody binding to immobilized BSA-SNC", "design": "species or system mouse", "procedure": "(§3) Data was collected using a medium collection rate at 25°C. The instrument was primed a few times using the running buffer before injecting the concentration series. For every binding cycle, the antibody samples were injected for 1.5 minutes at 50 µl/min flow rate and dissociation was monitored for 5 minutes. The bound antibody was releasedwith two 15 µl injections of pH 1.5 glycine buffer. The kinetic constants of binding were obtained using a 1∶1 Langmuir binding model. The raw data sets were analyzed using BIAevaluation (version 3.2) provided by BIAcore Inc. (Uppsala, Sweden). After the subtraction of background responses from the control flow cells, the association and dissociation phases were globally fitted for all the sensorgrams simultaneously, omitting any noisy data at the beginning and end of the analyte injection."}, "[4]": {"details": "cited from earlier work"}, "20% human serum": {"target": "20% human serum", "assay": "ITC titration of cocaine into 20% control human serum", "type": "binding", "procedure": "as §1, §2"}, "Clone 402": {"tested_on": "Clone 402", "assay": "ITC titration of cocaine into Clone 402 antibody", "type": "binding", "procedure": "as §1"}, "human serum albumin": {"target": "human serum albumin (Homo sapiens, UniProt P02768)", "sequence (P02768 25-609)": "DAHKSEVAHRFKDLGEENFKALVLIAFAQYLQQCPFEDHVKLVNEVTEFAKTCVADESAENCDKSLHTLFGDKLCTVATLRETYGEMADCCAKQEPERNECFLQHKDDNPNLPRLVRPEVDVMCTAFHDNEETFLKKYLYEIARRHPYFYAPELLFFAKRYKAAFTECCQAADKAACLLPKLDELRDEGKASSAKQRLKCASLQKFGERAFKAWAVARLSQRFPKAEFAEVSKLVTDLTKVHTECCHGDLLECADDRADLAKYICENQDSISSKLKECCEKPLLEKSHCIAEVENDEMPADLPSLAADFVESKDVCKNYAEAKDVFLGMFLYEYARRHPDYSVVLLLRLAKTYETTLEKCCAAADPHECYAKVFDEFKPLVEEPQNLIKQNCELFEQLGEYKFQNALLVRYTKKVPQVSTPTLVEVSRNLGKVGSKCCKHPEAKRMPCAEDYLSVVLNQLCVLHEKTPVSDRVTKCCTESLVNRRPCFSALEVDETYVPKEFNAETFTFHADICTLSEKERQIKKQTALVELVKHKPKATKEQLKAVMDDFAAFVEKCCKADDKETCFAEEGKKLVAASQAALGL", "assay": "ITC titration of cocaine into human serum albumin", "type": "binding", "details": "5 µM HSA against 45 µM cocaine in PBS", "procedure": "as §1, §2"}, "[5]": {"target": "enriched polyclonal antibodies purified from mouse or patient serum", "assay": "SPR competitive inhibition of enriched polyclonal antibody binding to immobilized BSA-SNC", "procedure": "as §3"}, "nonspecific human IgG": {"tested_on": "nonspecific human IgG", "assay": "ITC of cocaine in presence of nonspecific human IgG", "type": "binding", "details": "7 µM non-specific human IgG with mAb08", "procedure": "as §1, §2"}, "cAMP kinase": {"tested_on": "cAMP kinase", "design": "method as in PMID 20981028", "details": "in presence of 30% human serum; cited from earlier work"}, "[6]": {"details": "20 nM f-mAb08, 20% control human serum, read-out: K D ^2 (nM) (Serum%)"}, "[7]": {"details": "20 nM f-mAb08, PBS (phosphate buffer), read-out: K D ^1 (nM) Enriched IgG"}},
  "note": "“Also recorded” adds a separate entry of the source. Structures can show the parent of a compound that is named as a salt. Where two headings read alike, the source gives them in different places.",
  "data": [
    {"smiles": "CN1[C@H]2CC[C@@H]1[C@@H](C(=O)O)[C@@H](OC(=O)c1ccccc1)C2", "note": "[Benzoylecgonine]", "values": [
      {"measurement": "Kd", "setting": "mAb08 [1]; PBS pH 7.4, sample mAb08", "result": "18.6 ± 48.7", "unit": "nM"},
      {"measurement": "ΔGcal", "setting": "mAb08 [1]; PBS pH 7.4, sample mAb08", "result": -10.5, "unit": "kcal/mol"},
      {"measurement": "ΔHobs", "setting": "mAb08 [1]; PBS pH 7.4, sample mAb08", "result": "-21.66 ± 0.61", "unit": "kcal/mol"},
      {"measurement": "ΔScal", "setting": "mAb08 [1]; PBS pH 7.4, sample mAb08", "result": "−37.3", "unit": "cal.mol^−1K^−1"},
      {"measurement": "Kd", "setting": "f-mAb08; [6]", "result": 98, "unit": "nM"},
      {"measurement": "Kd", "setting": "f-mAb08; [7]", "result": 23.7, "unit": "nM"},
      {"measurement": "IC50", "setting": "mAb08 [2]", "result": 123, "unit": "nM"},
      {"measurement": "IC50", "setting": "mAb08 [2]; listed as BE", "result": "~123", "unit": "nM"},
      {"measurement": "inhibition of RR6 enriched fraction binding to BSA-SNC", "setting": "[3]", "result": "did not show any significant inhibition"},
      {"measurement": "elimination half-life", "setting": "[4]", "result": "6 to 8", "unit": "h"}
    ]},
    {"smiles": "COC(=O)[C@H]1[C@@H](OC(=O)c2ccccc2)C[C@@H]2CC[C@H]1N2C", "note": "[Cocaine, Cocaine hydrochloride]", "values": [
      {"measurement": "Kd", "setting": "mAb08 [1]; PBS pH 7.4, sample mAb08", "result": "2.5 ± 6.8", "unit": "nM"},
      {"measurement": "ΔGcal", "setting": "mAb08 [1]; PBS pH 7.4, sample mAb08", "result": -11.7, "unit": "kcal/mol"},
      {"measurement": "ΔHobs", "setting": "mAb08 [1]; PBS pH 7.4, sample mAb08", "result": "-28.08 ± 0.37", "unit": "kcal/mol"},
      {"measurement": "ΔScal", "setting": "mAb08 [1]; PBS pH 7.4, sample mAb08", "result": "−54.8", "unit": "cal.mol^−1K^−1"},
      {"measurement": "Kd", "setting": "mAb08 [1]; sample mAb08+7 µM hIgG", "result": "4 ± 10.5", "unit": "nM"},
      {"measurement": "ΔGcal", "setting": "mAb08 [1]; sample mAb08+7 µM hIgG", "result": -11.5, "unit": "kcal/mol"},
      {"measurement": "ΔHobs", "setting": "mAb08 [1]; sample mAb08+7 µM hIgG", "result": "-28.58 ± 0.35", "unit": "kcal/mol"},
      {"measurement": "ΔScal", "setting": "mAb08 [1]; sample mAb08+7 µM hIgG", "result": "−57.4", "unit": "cal.mol^−1K^−1"},
      {"measurement": "ΔHobs", "setting": "mAb08 [1]; sample mAb08+7 µM hIgG, listed as cocaine", "result": -28, "unit": "kcal/mol"},
      {"measurement": "Kd", "setting": "mAb08 [1]; sample mAb08+20% Serum", "result": 113, "unit": "nM"},
      {"measurement": "ΔGcal", "setting": "mAb08 [1]; sample mAb08+20% Serum", "result": -9.5, "unit": "kcal/mol"},
      {"measurement": "ΔHobs", "setting": "mAb08 [1]; sample mAb08+20% Serum", "result": "-33.19 ± 0.61", "unit": "kcal/mol"},
      {"measurement": "ΔScal", "setting": "mAb08 [1]; sample mAb08+20% Serum", "result": "−79.5", "unit": "cal.mol^−1K^−1"},
      {"measurement": "Kd", "setting": "mAb08 [1]; sample mAb08+20% Serum, listed as cocaine", "result": "~113", "unit": "nM"},
      {"measurement": "Kd", "setting": "20% human serum; 45 µM cocaine to 20% control human serum", "result": "~2000", "unit": "nM"},
      {"measurement": "Kd", "setting": "20% human serum; 25°C, sample 20% Serum", "result": 2000, "unit": "nM"},
      {"measurement": "ΔGcal", "setting": "20% human serum; 25°C, sample 20% Serum", "result": -7.8, "unit": "kcal/mol"},
      {"measurement": "ΔHobs", "setting": "20% human serum; 25°C, sample 20% Serum", "result": "-21.82 ± 3.16", "unit": "kcal/mol"},
      {"measurement": "ΔScal", "setting": "20% human serum; 25°C, sample 20% Serum", "result": "−47.1", "unit": "cal.mol^−1K^−1"},
      {"measurement": "ΔGcal", "setting": "Clone 402; ITC, 25°C, sample Clone 402", "result": -6.8, "unit": "kcal/mol"},
      {"measurement": "ΔHobs", "setting": "Clone 402; ITC, 25°C, sample Clone 402", "result": "-26.4 ± 1.93", "unit": "kcal/mol"},
      {"measurement": "ΔScal", "setting": "Clone 402; ITC, 25°C, sample Clone 402", "result": "−65.6", "unit": "cal.mol^−1K^−1"},
      {"measurement": "Kd", "setting": "Clone 402; ITC, 25°C, sample Clone 402, read-out: K D", "result": 10000, "unit": "nM"},
      {"measurement": "Kd", "setting": "Clone 402; clone 402 (Arista Biologicals), read-out: affinity to cocaine", "result": "~10000", "unit": "nM"},
      {"measurement": "binding to human serum albumin", "setting": "human serum albumin", "result": "very little interaction; also recorded: no detectable binding; also recorded: does not bind strongly"},
      {"measurement": "Kd", "setting": "f-mAb08; [6]", "result": 105, "unit": "nM"},
      {"measurement": "Kd", "setting": "f-mAb08; 20 nM f-mAb08, 50% control human serum, listed as cocaine, read-out: K D ^2 (nM) (Serum%)", "result": "~100", "unit": "nM"},
      {"measurement": "Kd", "setting": "f-mAb08; 20 nM f-mAb08, 50% control human serum, read-out: K D ^2 (nM) (Serum%)", "result": 128, "unit": "nM"},
      {"measurement": "Kd", "setting": "f-mAb08; [7]", "result": 7.8, "unit": "nM"},
      {"measurement": "IC50", "setting": "mAb08 [2]", "result": "~100", "unit": "nM"},
      {"measurement": "IC50", "setting": "mAb08 [2]; listed as cocaine", "result": "~104", "unit": "nM"},
      {"measurement": "IC50", "setting": "[5]", "result": "100 to 500", "unit": "nM"},
      {"measurement": "binding to nonspecific human IgG", "setting": "nonspecific human IgG", "result": "very little interaction; also recorded: absence of non-specific cocaine binding"},
      {"measurement": "elimination half-life", "setting": "[4]; depends on route of administration", "result": "1 to 1.5", "unit": "h"}
    ]},
    {"smiles": "CCOC(=O)[C@@H]1C2CCC(C[C@@H]1OC(=O)c1ccccc1)N2C", "note": "(stereo partly drawn) [Cocaethylene]", "values": [
      {"measurement": "Kd", "setting": "mAb08 [1]; PBS pH 7.4, sample mAb08", "result": 34.4, "unit": "nM"},
      {"measurement": "ΔGcal", "setting": "mAb08 [1]; PBS pH 7.4, sample mAb08", "result": -10.2, "unit": "kcal/mol"},
      {"measurement": "ΔHobs", "setting": "mAb08 [1]; PBS pH 7.4, sample mAb08", "result": "-21.16 ± 0.48", "unit": "kcal/mol"},
      {"measurement": "ΔScal", "setting": "mAb08 [1]; PBS pH 7.4, sample mAb08", "result": "−36.8", "unit": "cal.mol^−1K^−1"},
      {"measurement": "Kd", "setting": "f-mAb08; [6]", "result": 169, "unit": "nM"},
      {"measurement": "Kd", "setting": "f-mAb08; [7]", "result": 47, "unit": "nM"}
    ]},
    {"smiles": "O=c1c(O)c(-c2ccc(O)c(O)c2)oc2cc(O)cc(O)c12", "note": "[quercetin]", "values": [
      {"measurement": "fold decrease in affinity", "setting": "cAMP kinase", "result": 400, "unit": "fold"}
    ]}
  ]
}
